This passage reports Activity and EC50 results from ChEMBL document CHEMBL4610073, “Potential Antidiabetic Fumiquinazoline Alkaloids from the Marine-Derived Fungus Scedosporium apiospermum F41-1” (J Nat Prod, 2020).

Each structure is given as a SMILES string. Calls of active or inactive are those of the source. No cut-off for these calls is given here.

For data set [1], the system named is 3T3-L1. Put plainly: Antidiabetic activity in mouse 3T3L1 preadipocytes assessed as increase in triglycerides level at 1 to 5 uM after 6 days by ORO staining based microscopic method. The class given is functional, cell-based.
Data set [2] has as its system 3T3-L1. Put plainly: Antidiabetic activity in mouse 3T3L1 preadipocytes assessed as increase in triglycerides level at 5 uM after 6 days. It is filed as functional, cell-based.
Data set [3] has as its system 3T3-L1. Put plainly: Antidiabetic activity in mouse 3T3L1 preadipocytes assessed as increase in triglycerides level after 6 days. The class given is functional, cell-based. As to conditions: 3T3-L1, 144 h.
Data set [4] concerns 3T3-L1. Put plainly: Cytotoxicity against mouse 3T3L1 preadipocytes assessed as reduction in cell viability at 50 uM. It is filed as cell-based. The following applies: 3t3-l1, 50 µM.
The subject of data set [5] is 3T3-L1. Put plainly: Antidiabetic activity in mouse 3T3L1 preadipocytes assessed as increase in triglycerides level at 5 uM up to 3 days by ORO staining based microscopic method. It is filed as functional, cell-based.
For data set [6], the system named is 3T3-L1. Put plainly: Antidiabetic activity in mouse 3T3L1 preadipocytes assessed as increase in triglycerides level at 5 uM after 3 to 6 days by ORO staining based microscopic method. It is filed as functional, cell-based.
Data set [7] concerns the target T1, Peroxisome proliferator-activated receptor gamma (Mus musculus) (UniProt P37238).
T1 sequence (whole entry): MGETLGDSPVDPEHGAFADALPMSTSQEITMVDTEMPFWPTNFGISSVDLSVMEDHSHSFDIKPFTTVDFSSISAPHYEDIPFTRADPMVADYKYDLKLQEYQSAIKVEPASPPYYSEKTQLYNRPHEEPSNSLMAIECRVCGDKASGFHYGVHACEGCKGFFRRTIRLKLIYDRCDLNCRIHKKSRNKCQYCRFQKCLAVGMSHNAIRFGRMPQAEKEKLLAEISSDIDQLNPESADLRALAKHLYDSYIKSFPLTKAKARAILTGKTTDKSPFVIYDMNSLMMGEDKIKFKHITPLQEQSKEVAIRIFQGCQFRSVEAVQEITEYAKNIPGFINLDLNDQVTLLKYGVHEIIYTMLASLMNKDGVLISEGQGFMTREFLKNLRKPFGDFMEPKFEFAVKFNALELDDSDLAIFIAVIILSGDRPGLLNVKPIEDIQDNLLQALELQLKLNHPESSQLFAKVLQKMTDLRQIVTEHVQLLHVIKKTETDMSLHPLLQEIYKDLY
Put plainly: Agonist activity at PPARgamma in mouse 3T3L1 preadipocytes assessed as increase in AMPKalpha mRNA expression at 5 uM after 6 days by RT-PCR analysis. It is filed as cell-based. As to conditions: 3T3-L1.

Data set [8] deals with T1, Peroxisome proliferator-activated receptor gamma (Mus musculus). Put plainly: Agonist activity at PPARgamma in mouse 3T3L1 preadipocytes assessed as increase in C/EBPalpha mRNA expression at 5 uM after 6 days by RT-PCR analysis. The class given is cell-based. The following applies: 3T3-L1.
Data set [9] shares this target. Put plainly: Agonist activity at PPARgamma in mouse 3T3L1 preadipocytes assessed as increase in PPARgamma mRNA expression at 5 uM after 6 days by RT-PCR analysis. It is filed as cell-based. The following applies: 3T3-L1.
For data set [10] the target is unchanged. Put plainly: Agonist activity at PPARgamma in mouse 3T3L1 preadipocytes assessed as increase in LXRalpha mRNA expression at 5 uM after 6 days by RT-PCR analysis. The class given is cell-based. The following applies: 3T3-L1.
The target is the same in data set [11]. Put plainly: Agonist activity at PPARgamma in mouse 3T3L1 preadipocytes assessed as increase in SCD-1 mRNA expression at 5 uM after 6 days by RT-PCR analysis. The class given is cell-based. The following applies: 3T3-L1.
For data set [12] the target is unchanged. Put plainly: Agonist activity at PPARgamma in mouse 3T3L1 preadipocytes assessed as increase in FABP4 mRNA expression at 5 uM after 6 days by RT-PCR analysis. The class given is cell-based. The following applies: 3T3-L1.
In data set [13] the test system is 3T3-L1. Put plainly: Antidiabetic activity in mouse 3T3L1 preadipocytes assessed as increase in triglycerides level at 5 uM after 6 days in presence of GW9662. The class given is functional, cell-based.
Data set [14] has as its system 3T3-L1. Put plainly: Antidiabetic activity in mouse 3T3L1 preadipocytes assessed as increase in triglycerides level at 5 uM after 6 days in presence of T0070907. The class given is functional, cell-based.

The EC50 is the concentration giving half of the maximal effect. `CC(C)=C1NC(=O)[C@@H](C[C@]2(O)c3ccccc3N3C(=O)C(C)(C)N[C@H]32)n2c1nc1ccccc1c2=O`: the result in [1], in data set [2], in [5] and in data set [6] was Active. In addition, the EC50 in [3] is 2340 nM. Also, in [4], the Activity entry is listed as “Non-Toxic”.
`CC[C@@H]1N[C@@H]2N(C1=O)c1ccccc1[C@@]2(O)C[C@@H]1C(=O)NC(=C(C)C)c2nc3ccccc3c(=O)n21`: the result in data set [1], in data set [2], in data set [7], in data set [5], in data set [6] and in data set [8] was Active. In addition, the outcome in data set [9], in [10], in data set [11] and in data set [12] was Active. The EC50 in data set [3] turned out to be 270 nM. The Activity result in data set [4] is reported as “Non-Toxic”. Moreover, the result in data set [13] and in data set [14] was inactive.
For `CN(CCOc1ccc(CC2SC(=O)NC2=O)cc1)c1ccccn1` (stereo unspecified) [ROSIGLITAZONE], the EC50 in data set [3] worked out at 120 nM.
Turning to `C/C=C1\NC(=O)[C@@H](Cc2c[nH]c3ccccc23)n2c1nc1ccccc1c2=O`, the result in data set [1], in data set [2], in data set [5] and in data set [6] was Active. Besides, in data set [3], the concentration for a half-maximal effect (EC50) stood at 1030 nM. The Activity entry in [4] was “Non-Toxic”.
Consider `CC(C)=C1NC(=O)[C@@H](C[C@]2(O)c3ccccc3N3C(=O)[C@H](C(C)C)N[C@H]32)n2c1nc1ccccc1c2=O`, for which the result in data set [1], in data set [2], in data set [7], in data set [5], in data set [6] and in data set [8] was Active. Also, the result in data set [9], in [10], in data set [11] and in [12] was Active. In data set [3], the EC50 was found to be 360 nM. In data set [4], the Activity entry was “Non-Toxic”. Further, the result in [13] and in [14] was inactive.
